{"source": "ChEMBL document CHEMBL4270577", "about": "“Synthesis, anticancer activity and molecular modeling studies of 1,2,4-triazole derivatives as EGFR inhibitors” (Eur J Med Chem, 2018)", "key": {"[1]": {"test_system": "KM12", "assay": "Cytotoxicity against human KM12 cells incubated for 48 hrs by sulforhodamine B assay", "format": "functional", "conditions": "KM12, 48 h"}, "[2]": {"test_system": "T47D", "assay": "Cytotoxicity against human T47D cells incubated for 48 hrs by sulforhodamine B assay", "format": "functional"}, "[3]": {"test_system": "OVCAR-5", "assay": "Growth inhibition of human OVCAR5 cells at 10 uM incubated for 48 hrs by sulforhodamine B assay relative to control", "format": "functional", "conditions": "OVCAR-5, 48 h, read-out: GI"}, "[4]": {"test_system": "CCRF-CEM", "assay": "Cytotoxicity against human CCRF-CEM cells incubated for 48 hrs by sulforhodamine B assay", "format": "functional"}, "[5]": {"test_system": "SNB-75", "assay": "Cytotoxicity against human SNB75 cells incubated for 48 hrs by sulforhodamine B assay", "format": "functional", "conditions": "SNB-75, 48 h"}, "[6]": {"test_system": "OVCAR-5", "assay": "Cytotoxicity against human OVCAR5 cells incubated for 48 hrs by sulforhodamine B assay", "format": "functional", "conditions": "OVCAR-5, 48 h"}, "[7]": {"test_system": "SK-MEL-5", "assay": "Cytotoxicity against human SK-MEL-5 cells incubated for 48 hrs by sulforhodamine B assay", "format": "functional", "conditions": "SK-MEL-5, 48 h"}, "[8]": {"molecular_target": "Serine/threonine-protein kinase B-raf (Mus musculus, UniProt P28028, V600E)", "sequence (P28028 whole entry, looked up, stated change not applied)": "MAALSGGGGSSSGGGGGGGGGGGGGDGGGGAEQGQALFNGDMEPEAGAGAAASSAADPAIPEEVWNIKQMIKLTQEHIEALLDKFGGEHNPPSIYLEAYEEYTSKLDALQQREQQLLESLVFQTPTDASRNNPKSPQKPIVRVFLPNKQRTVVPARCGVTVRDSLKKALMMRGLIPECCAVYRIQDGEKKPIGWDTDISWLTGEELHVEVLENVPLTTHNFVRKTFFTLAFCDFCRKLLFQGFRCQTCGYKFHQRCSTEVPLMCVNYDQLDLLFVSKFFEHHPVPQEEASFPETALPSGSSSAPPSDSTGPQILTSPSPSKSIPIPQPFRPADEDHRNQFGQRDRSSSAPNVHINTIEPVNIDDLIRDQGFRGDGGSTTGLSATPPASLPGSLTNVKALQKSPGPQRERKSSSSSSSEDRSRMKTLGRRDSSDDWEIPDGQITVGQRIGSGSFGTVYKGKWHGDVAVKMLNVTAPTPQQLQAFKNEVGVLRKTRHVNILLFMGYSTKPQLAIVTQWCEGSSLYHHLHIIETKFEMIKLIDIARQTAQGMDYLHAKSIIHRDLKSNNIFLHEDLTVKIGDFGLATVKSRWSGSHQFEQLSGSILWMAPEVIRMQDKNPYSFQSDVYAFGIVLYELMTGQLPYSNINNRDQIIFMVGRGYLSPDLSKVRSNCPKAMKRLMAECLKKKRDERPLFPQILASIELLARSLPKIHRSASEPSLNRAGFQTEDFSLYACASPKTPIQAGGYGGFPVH", "assay": "Inhibition of mouse full length GST-tagged BRAF V600E mutant using recombinant human His6-tagged MEK1 as substrate preincubated for 1 hr followed by substrate addition measured after 25 mins by ELISA"}, "[9]": {"test_system": "HCC 2998", "assay": "Cytotoxicity against human HCC2998 cells incubated for 48 hrs by sulforhodamine B assay", "format": "functional", "conditions": "HCC 2998, 48 h"}, "[10]": {"test_system": "A549", "assay": "Induction of apoptosis in human A549 cells assessed as necrotic cells at 1.4 uM after 24 hrs by Annexin V/propidium iodide staining based flow cytometric analysis (reference value: 0.09%)", "format": "functional"}, "[11]": {"test_system": "NCI-H226", "assay": "Cytotoxicity against human NCI-H226 cells incubated for 48 hrs by sulforhodamine B assay", "format": "functional", "conditions": "NCI-H226, 48 h"}, "[12]": {"test_system": "BT-549", "assay": "Cytotoxicity against human BT549 cells incubated for 48 hrs by sulforhodamine B assay", "format": "functional", "conditions": "BT-549, 48 h"}, "[13]": {"test_system": "A549", "assay": "Cell cycle arrest in human A549 cells assessed as accumulation at S phase at 1.4 uM after 24 hrs by propidium iodide staining based flow cytometry (reference value: 27.9%)", "format": "functional"}, "[14]": {"test_system": "SR", "assay": "Cytotoxicity against human SR cells incubated for 48 hrs by sulforhodamine B assay", "format": "functional"}, "[15]": {"test_system": "A549", "assay": "Cytotoxicity against human A549/ATCC cells incubated for 48 hrs by sulforhodamine B assay", "format": "functional", "conditions": "A549, 48 h"}, "[16]": {"test_system": "K562", "assay": "Cytotoxicity against human K562 cells incubated for 48 hrs by sulforhodamine B assay", "format": "functional", "conditions": "K562, 48 h"}, "[17]": {"test_system": "SK-MEL-28", "assay": "Cytotoxicity against human SK-MEL-28 cells incubated for 48 hrs by sulforhodamine B assay", "format": "functional", "conditions": "SK-MEL-28, 48 h"}, "[18]": {"test_system": "HCT-15", "assay": "Cytotoxicity against human HCT15 cells incubated for 48 hrs by sulforhodamine B assay", "format": "functional", "conditions": "HCT-15, 48 h"}, "[19]": {"test_system": "RPMI-8226", "assay": "Cytotoxicity against human RPMI8226 cells incubated for 48 hrs by sulforhodamine B assay", "format": "functional", "conditions": "RPMI-8226, 48 h"}, "[20]": {"test_system": "OVCAR-8", "assay": "Cytotoxicity against human OVCAR8 cells incubated for 48 hrs by sulforhodamine B assay", "format": "functional", "conditions": "OVCAR-8, 48 h"}, "[21]": {"test_system": "TK-10", "assay": "Cytotoxicity against human TK10 cells incubated for 48 hrs by sulforhodamine B assay", "format": "functional", "conditions": "TK-10, 48 h"}, "[22]": {"test_system": "Malme-3M", "assay": "Cytotoxicity against human MALME-3M cells incubated for 48 hrs by sulforhodamine B assay", "format": "functional"}, "[23]": {"test_system": "NCI/ADR-RES", "assay": "Cytotoxicity against human NCI/ADR-RES cells incubated for 48 hrs by sulforhodamine B assay", "format": "functional"}, "[24]": {"test_system": "NCI-H322M", "assay": "Cytotoxicity against human NCI-H322M cells incubated for 48 hrs by sulforhodamine B assay", "format": "functional"}, "[25]": {"test_system": "HOP-62", "assay": "Cytotoxicity against human HOP62 cells incubated for 48 hrs by sulforhodamine B assay", "format": "functional", "conditions": "HOP-62, 48 h"}, "[26]": {"test_system": "MDA-MB-231", "assay": "Cytotoxicity against human MDA-MB-231 cells incubated for 48 hrs by sulforhodamine B assay", "format": "functional", "conditions": "MDA-MB-231, 48 h"}, "[27]": {"test_system": "M14", "assay": "Cytotoxicity against human M14 cells incubated for 48 hrs by sulforhodamine B assay", "format": "functional", "conditions": "M14, 48 h"}, "[28]": {"test_system": "LOX IMVI", "assay": "Cytotoxicity against human LOXIMVI cells incubated for 48 hrs by sulforhodamine B assay", "format": "functional"}, "[29]": {"conditions": "read-out: LC50 (the source's name)"}}}
{"compound": "COc1ccc(-c2nc3sc(-c4ccc(Cl)cc4)cn3n2)cc1", "values": [{"measurement": "GI50", "setting": "[1]", "value": 12.2, "unit": "µM"}, {"measurement": "TGI", "setting": "[1]", "value": "> 50", "unit": "µM"}, {"measurement": "CC50", "setting": "[1]; [29]", "value": "> 50", "unit": "µM"}, {"measurement": "GI50", "setting": "[2]", "value": 3.54, "unit": "µM"}, {"measurement": "TGI", "setting": "[2]", "value": "> 50", "unit": "µM"}, {"measurement": "CC50", "setting": "[2]; [29]", "value": "> 50", "unit": "µM"}, {"measurement": "inhibition of growth at 10 µM", "setting": "[3]", "value": 48, "unit": "%"}, {"measurement": "GI50", "setting": "[4]", "value": "> 50", "unit": "µM"}, {"measurement": "TGI", "setting": "[4]", "value": "> 50", "unit": "µM"}, {"measurement": "CC50", "setting": "[4]; [29]", "value": "> 50", "unit": "µM"}, {"measurement": "GI50", "setting": "[5]", "value": 1.61, "unit": "µM"}, {"measurement": "TGI", "setting": "[5]", "value": 6.85, "unit": "µM"}, {"measurement": "CC50", "setting": "[5]; [29]", "value": 23.3, "unit": "µM"}, {"measurement": "GI50", "setting": "[6]", "value": 2.78, "unit": "µM"}, {"measurement": "TGI", "setting": "[6]", "value": "> 50", "unit": "µM"}, {"measurement": "CC50", "setting": "[6]; [29]", "value": "> 50", "unit": "µM"}, {"measurement": "GI50", "setting": "[7]", "value": 14, "unit": "µM"}, {"measurement": "TGI", "setting": "[7]", "value": "> 50", "unit": "µM"}, {"measurement": "CC50", "setting": "[7]; [29]", "value": "> 50", "unit": "µM"}, {"measurement": "IC50", "setting": "[8]", "value": 4.7, "unit": "µM"}, {"measurement": "GI50", "setting": "[9]", "value": "> 50", "unit": "µM"}, {"measurement": "TGI", "setting": "[9]", "value": "> 50", "unit": "µM"}, {"measurement": "CC50", "setting": "[9]; [29]", "value": 39.4, "unit": "µM"}, {"measurement": "Activity", "setting": "[10]", "value": 1.34, "unit": "%"}, {"measurement": "GI50", "setting": "[11]", "value": 11.1, "unit": "µM"}, {"measurement": "TGI", "setting": "[11]", "value": "> 50", "unit": "µM"}, {"measurement": "CC50", "setting": "[11]; [29]", "value": "> 50", "unit": "µM"}, {"measurement": "GI50", "setting": "[12]", "value": 43.2, "unit": "µM"}, {"measurement": "TGI", "setting": "[12]", "value": "> 50", "unit": "µM"}, {"measurement": "CC50", "setting": "[12]; [29]", "value": "> 50", "unit": "µM"}, {"measurement": "Activity", "setting": "[13]", "value": 17.34, "unit": "%"}, {"measurement": "GI50", "setting": "[14]", "value": 4.53, "unit": "µM"}, {"measurement": "TGI", "setting": "[14]", "value": 26.1, "unit": "µM"}, {"measurement": "CC50", "setting": "[14]; [29]", "value": "> 50", "unit": "µM"}, {"measurement": "GI50", "setting": "[15]", "value": 1.59, "unit": "µM"}, {"measurement": "TGI", "setting": "[15]", "value": 5.89, "unit": "µM"}, {"measurement": "CC50", "setting": "[15]; [29]", "value": 46.9, "unit": "µM"}, {"measurement": "GI50", "setting": "[16]", "value": 29.4, "unit": "µM"}, {"measurement": "TGI", "setting": "[16]", "value": "> 50", "unit": "µM"}, {"measurement": "CC50", "setting": "[16]; [29]", "value": "> 50", "unit": "µM"}, {"measurement": "GI50", "setting": "[17]", "value": "> 50", "unit": "µM"}, {"measurement": "TGI", "setting": "[17]", "value": "> 50", "unit": "µM"}, {"measurement": "CC50", "setting": "[17]; [29]", "value": "> 50", "unit": "µM"}, {"measurement": "GI50", "setting": "[18]", "value": 24.5, "unit": "µM"}, {"measurement": "TGI", "setting": "[18]", "value": "> 50", "unit": "µM"}, {"measurement": "CC50", "setting": "[18]; [29]", "value": "> 50", "unit": "µM"}, {"measurement": "GI50", "setting": "[19]", "value": 3.67, "unit": "µM"}, {"measurement": "TGI", "setting": "[19]", "value": "> 50", "unit": "µM"}, {"measurement": "CC50", "setting": "[19]; [29]", "value": "> 50", "unit": "µM"}, {"measurement": "GI50", "setting": "[20]", "value": 2.6, "unit": "µM"}, {"measurement": "TGI", "setting": "[20]", "value": "> 50", "unit": "µM"}, {"measurement": "CC50", "setting": "[20]; [29]", "value": "> 50", "unit": "µM"}, {"measurement": "GI50", "setting": "[21]", "value": 2.01, "unit": "µM"}, {"measurement": "TGI", "setting": "[21]", "value": 5.62, "unit": "µM"}, {"measurement": "CC50", "setting": "[21]; [29]", "value": 34.8, "unit": "µM"}, {"measurement": "GI50", "setting": "[22]", "value": 2.71, "unit": "µM"}, {"measurement": "TGI", "setting": "[22]", "value": "> 50", "unit": "µM"}, {"measurement": "CC50", "setting": "[22]; [29]", "value": "> 50", "unit": "µM"}, {"measurement": "GI50", "setting": "[23]", "value": 3.75, "unit": "µM"}, {"measurement": "TGI", "setting": "[23]", "value": "> 50", "unit": "µM"}, {"measurement": "CC50", "setting": "[23]; [29]", "value": "> 50", "unit": "µM"}, {"measurement": "GI50", "setting": "[24]", "value": 1.76, "unit": "µM"}, {"measurement": "TGI", "setting": "[24]", "value": "> 50", "unit": "µM"}, {"measurement": "CC50", "setting": "[24]; [29]", "value": "> 50", "unit": "µM"}, {"measurement": "GI50", "setting": "[25]", "value": 2.36, "unit": "µM"}, {"measurement": "TGI", "setting": "[25]", "value": "> 50", "unit": "µM"}, {"measurement": "CC50", "setting": "[25]; [29]", "value": "> 50", "unit": "µM"}, {"measurement": "GI50", "setting": "[26]", "value": 2.06, "unit": "µM"}, {"measurement": "TGI", "setting": "[26]", "value": 16.7, "unit": "µM"}, {"measurement": "CC50", "setting": "[26]; [29]", "value": "> 50", "unit": "µM"}, {"measurement": "GI50", "setting": "[27]", "value": "> 50", "unit": "µM"}, {"measurement": "TGI", "setting": "[27]", "value": "> 50", "unit": "µM"}, {"measurement": "CC50", "setting": "[27]; [29]", "value": "> 50", "unit": "µM"}, {"measurement": "GI50", "setting": "[28]", "value": "> 50", "unit": "µM"}, {"measurement": "TGI", "setting": "[28]", "value": "> 50", "unit": "µM"}, {"measurement": "CC50", "setting": "[28]; [29]", "value": "> 50", "unit": "µM"}]}
